For one series, the system named is Colinus virginianus. The conditions noted are these: for LC50: diet.
The test system of the next series is Folsomia candida. The conditions noted are these: chronic/long-term; duration: 28 days; reproduction.
For a further series, the system named is Anas platyrhynchos. The conditions noted are these: for LC50: short-term, feed.
For a further series, the system named is Apis mellifera. The conditions noted are these: acute; duration: 48 hours; oral; unspecified; mortality.
For the next series, the system named is Daphnia magna. The following applies: chronic/long-term; duration: 21 days.
The subject of another series is Tagia sp. The conditions noted are these: acute; duration: 14 days; mortality.
The test system of the next series is Cyprinodon variegatus. The following applies: acute; duration: 96 hours; mortality.
The subject of another series is Coturnix japonica. The conditions noted are these: acute; oral; mortality.
The subject of the next series is Typhlodromus pyri. As to the kind of experiment: LR50; higher = less toxic. The following applies: not reported; mortality.

Converted amounts (≈) assume the structure as drawn. “And” between values parts separate entries of the source, which are not always exact repeats. Identical values can stand only once.

In the case of `CC(C1CC1)C(O)(Cn1cncn1)c1ccc(Cl)cc1` (stereo not drawn) [Cyproconazole], the LC50 with Colinus virginianus (acute, oral, mortality) was 478 mg/kg-day and 585 mg/kg-day; in the series on Anas platyrhynchos (oral, mortality), 151 mg/kg-day; in the series on Oncorhynchus mykiss (acute, duration: 96 hours, mortality) it was 19 µg/mL (≈ 65.1 µM); with Tagia sp., above 335 mg/kg; with Cyprinodon variegatus it was 21 µg/mL (≈ 72 µM). Further, the LD50 was 94 mg/kg-day and 183 mg/kg-day in the series with Colinus virginianus (acute, oral, mortality); above 2000 mg/kg-day in the series on Anas platyrhynchos (acute, oral, unspecified, mortality); above 100 µg/piece in the series with Apis mellifera; 200 mg/kg-day with Mus musculus (acute, oral, mortality); 130 mg/kg-day in the series on Coturnix japonica. The NOEC in the series with Colinus virginianus (reproduction developmental) was 6.6 mg/kg-day; in the series on Folsomia candida it was 55.8 mg/kg; with Anas platyrhynchos (reproductive), 1.4 mg/kg-day and 2.4 mg/kg-day; in the series on Daphnia magna, 0.023 mg/L; in the series on Oncorhynchus mykiss (chronic/long-term, duration: 89 days, growth), 0.16 mg/L. Moreover, the NOAEL is 1.84 mg/kg-day in the series with Mus musculus (chronic, duration: 18 months, body weight); 2.22 mg/kg-day in the series on Rattus norvegicus (chronic, duration: 2 years, M/F, body weight); 1.7 mg/kg-day with Rattus norvegicus (reproduction developmental, F, reproduction); 1.4 mg/kg-day in the series with Rattus norvegicus (reproduction developmental, M, organ weight). This compound displayed an LR50 in the series on Typhlodromus pyri of 29.4 g/ha.
For the compound `NC(Cc1ncn[nH]1)C(=O)O` (stereo not drawn) [1,2,4-Triazole-3-alanine], the LC50 with Colinus virginianus (acute, oral, mortality) is above 1400 mg/kg-day; with Anas platyrhynchos (oral, mortality), above 1340 mg/kg-day. The same compound returned an NOAEL in the series with Rattus norvegicus (developmental, development) of 100 mg/kg-day.

The record behind these values is EPA's ToxValDB 9.5 (doi:10.2903/j.efsa.2010.1897).
